From ChEMBL document CHEMBL5576150, “Synthesis and Biological Evaluation of Pyrazole-Pyrimidones as a New Class of Correctors of the Cystic Fibrosis Transmembrane Conductance Regulator (CFTR)” (J Med Chem, 2024)
The source made the active and inactive calls. The rule behind the calls is not given here.

Key:
[1] = test system: Cystic fibrosis transmembrane conductance regulator (Homo sapiens), P13569 [M1101K]; test: (§1) Corrector activity at 3xHA-tagged full-length human CFTR M1101K mutant expressed in human CFBE41o- cells assessed as restoration of plasma membrane density of channel in presence of VX-809/N-(5-(4-fluorobenzyl)thiazol-2-yl)-2,5-dimethylfuran-3-carboxamide by ELISA relative to wild-type CFTR level; type: cell membranes; settings: filed as activator
[2] = test system: Cystic fibrosis transmembrane conductance regulator (Homo sapiens), P13569 [S492F]; test: Corrector activity at 3xHA-tagged full-length human CFTR S492F mutant expressed in human CFBE41o- cells assessed as restoration of plasma membrane density of channel in presence of VX-809/N-(5-(4-fluorobenzyl)thiazol-2-yl)-2,5-dimethylfuran-3-carboxamide by ELISA; type: cell membranes; settings: filed as activator
[3] = test system: Cystic fibrosis transmembrane conductance regulator (Homo sapiens), P13569 [F508del]; test: Corrector activity at 3xHA-tagged full-length human CFTR F508del mutant expressed in human CFBE41o- cells assessed as restoration of plasma membrane density of channel in presence of N-(5-(4-fluorobenzyl)thiazol-2-yl)-2,5-dimethylfuran-3-carboxamide incubated for 24 hrs by ELISA; type: cell membranes; settings: filed as activator
[4] = test system: Cystic fibrosis transmembrane conductance regulator (Homo sapiens), P13569 [F508del]; test: as §1, with “F508del” for “M1101K”, “channel at 10 uM incubated for 24 hrs” for “channel”; type: cell membranes; settings: filed as activator
[5] = test system: Cystic fibrosis transmembrane conductance regulator (Homo sapiens), P13569 [F508del]; test: Corrector activity at 3xHA-tagged full-length human CFTR F508del mutant expressed in human CFBE41o- cells assessed as fractional plasma membrane density at 10 uM in presence of VX-809/N-(5-(4-fluorobenzyl)thiazol-2-yl)-2,5-dimethylfuran-3-carboxamide relative to forskoli-stimulated wild-type CFTR expressed in human CFBE41o- cells; type: cell membranes; settings: filed as activator
[6] = test system: Cystic fibrosis transmembrane conductance regulator (Homo sapiens), P13569 [S13F]; test: Corrector activity at 3xHA-tagged full-length human CFTR S13F mutant expressed in human CFBE41o- cells assessed as restoration of plasma membrane density of channel in presence of N-(5-(4-fluorobenzyl)thiazol-2-yl)-2,5-dimethylfuran-3-carboxamide incubated for 24 hrs by ELISA; type: cell membranes; settings: filed as activator
[7] = test system: Cystic fibrosis transmembrane conductance regulator (Homo sapiens), P13569 [S13F]; test: Corrector activity at 3xHA-tagged full-length human CFTR S13F mutant expressed in human CFBE41o- cells assessed as restoration of plasma membrane density of channel in presence of VX-809 incubated for 24 hrs by ELISA; type: cell membranes; settings: filed as activator
[8] = test system: Cystic fibrosis transmembrane conductance regulator (Homo sapiens), P13569 [F508del]; test: Corrector activity at 3xHA-tagged full-length human CFTR F508del mutant expressed in human CFBE41o- cells assessed as restoration of plasma membrane density of channel incubated for 24 hrs in presence of VX-661 by ELISA; type: cell membranes; settings: filed as activator
[9] = test system: Cystic fibrosis transmembrane conductance regulator (Homo sapiens), P13569 [F508del]; test: Corrector activity at 3xHA-tagged full-length human CFTR F508del mutant expressed in human CFBE41o- cells assessed as functional rescue of channel by measuring anion transport measured after 24 hrs in presence of VX-809/N-(5-(4-fluorobenzyl)thiazol-2-yl)-2,5-dimethylfuran-3-carboxamide by halide-sensitive YFP quenching assay relative to combination of VX-809/N-(5-(4-fluorobenzyl)thiazol-2-yl)-2,5-dimethylfuran-3-carboxamide; type: cell-based; settings: filed as activator
[10] = test system: Cystic fibrosis transmembrane conductance regulator (Homo sapiens), P13569 [F508del]; test: (§2) Corrector activity at 3xHA-tagged full-length human CFTR F508del mutant expressed in human CFBE41o- cells assessed as restoration of plasma membrane density of channel incubated for 24 hrs in presence of VX-809/N-(5-(4-fluorobenzyl)thiazol-2-yl)-2,5-dimethylfuran-3-carboxamide by ELISA; type: cell membranes; settings: filed as activator, dose 10.0 µM
[11] = biological target: Cystic fibrosis transmembrane conductance regulator (Homo sapiens, UniProt P13569, F508DEL); test: as §2; type: cell membranes
[12] = test system: Cystic fibrosis transmembrane conductance regulator (Homo sapiens), P13569 [N1303K]; test: Corrector activity at 3xHA-tagged full-length human CFTR N1303K mutant expressed in human CFBE41o- cells assessed as restoration of plasma membrane density of channel in presence of VX-809/N-(5-(4-fluorobenzyl)thiazol-2-yl)-2,5-dimethylfuran-3-carboxamide by ELISA relative to wild-type CFTR level; type: cell membranes; settings: filed as activator
[13] = test system: Cystic fibrosis transmembrane conductance regulator (Homo sapiens), P13569 [F508del]; test: (§3) Corrector activity at 3xHA-tagged full-length human CFTR F508del mutant expressed in human CFBE41o- cells assessed as decrease in forskolin/VX-770-induced transepithelial short-circuit current at 10 uM in presence of VX-809/N-(5-(4-fluorobenzyl)thiazol-2-yl)-2,5-dimethylfuran-3-carboxamide by electrophysiological method relative to control; type: cell-based; design: scale not given: the % may be the effect or the level left; settings: filed as activator
[14] = test system: Cystic fibrosis transmembrane conductance regulator (Homo sapiens), P13569 [F508del]; test: Corrector activity at 3xHA-tagged full-length human CFTR F508del mutant expressed in human CFBE41o- cells assessed as restoration of plasma membrane density of channel incubated for 24 hrs in presence of VX-809 by ELISA; type: cell membranes; settings: filed as activator
[15] = test system: Cystic fibrosis transmembrane conductance regulator (Homo sapiens), P13569 [S492F]; test: Corrector activity at 3xHA-tagged full-length human CFTR S492F mutant expressed in human CFBE41o- cells assessed as restoration of plasma membrane density of channel in presence of VX-661 incubated for 24 hrs by ELISA; type: cell membranes; settings: filed as activator
[16] = test system: Cystic fibrosis transmembrane conductance regulator (Homo sapiens), P13569 [S492F]; test: Corrector activity at 3xHA-tagged full-length human CFTR S492F mutant expressed in human CFBE41o- cells assessed as restoration of plasma membrane density of channel incubated for 24 hrs in presence of VX-445 by ELISA; type: cell membranes
[17] = test system: Cystic fibrosis transmembrane conductance regulator (Homo sapiens), P13569 [F508del]; test: Corrector activity at 3xHA-tagged full-length human CFTR F508del mutant expressed in human CFBE41o- cells assessed as restoration of plasma membrane density of channel incubated for 24 hrs in presence of VX-445 by ELISA; type: cell membranes
[18] = test system: Cystic fibrosis transmembrane conductance regulator (Homo sapiens), P13569 [S13F]; test: Corrector activity at 3xHA-tagged full-length human CFTR S13F mutant expressed in human CFBE41o- cells assessed as restoration of plasma membrane density of channel in presence of VX-661 incubated for 24 hrs by ELISA; type: cell membranes; settings: filed as activator
[19] = test system: Cystic fibrosis transmembrane conductance regulator (Homo sapiens), P13569 [S13F]; test: Corrector activity at 3xHA-tagged full-length human CFTR S13F mutant expressed in human CFBE41o- cells assessed as restoration of plasma membrane density of channel in presence of VX-809/N-(5-(4-fluorobenzyl)thiazol-2-yl)-2,5-dimethylfuran-3-carboxamide by ELISA; type: cell membranes; settings: filed as activator
[20] = test system: Cystic fibrosis transmembrane conductance regulator (Homo sapiens), P13569 [S492F]; test: Corrector activity at 3xHA-tagged full-length human CFTR S492F mutant expressed in human CFBE41o- cells assessed as restoration of plasma membrane density of channel in presence of VX-809 incubated for 24 hrs by ELISA; type: cell membranes; settings: filed as activator
[21] = test system: Cystic fibrosis transmembrane conductance regulator (Homo sapiens), P13569 [S13F]; test: Corrector activity at 3xHA-tagged full-length human CFTR S13F mutant expressed in human CFBE41o- cells assessed as restoration of plasma membrane density of channel at 10 uM incubated for 24 hrs in presence of VX-445 by ELISA; type: cell membranes
[22] = test system: Cystic fibrosis transmembrane conductance regulator (Homo sapiens), P13569 [R560T]; test: Corrector activity at 3xHA-tagged full-length human CFTR R560T mutant expressed in human CFBE41o- cells assessed as restoration of plasma membrane density of channel in presence of VX-809/N-(5-(4-fluorobenzyl)thiazol-2-yl)-2,5-dimethylfuran-3-carboxamide by ELISA; type: cell membranes
[23] = test system: Cystic fibrosis transmembrane conductance regulator (Homo sapiens), P13569 [S492F]; test: Corrector activity at 3xHA-tagged full-length human CFTR S492F mutant expressed in human CFBE41o- cells assessed as restoration of plasma membrane density of channel in presence of N-(5-(4-fluorobenzyl)thiazol-2-yl)-2,5-dimethylfuran-3-carboxamide incubated for 24 hrs by ELISA; type: cell membranes; settings: filed as activator
[24] = test system: Cystic fibrosis transmembrane conductance regulator (Homo sapiens), P13569 [S13F]; test: Corrector activity at 3xHA-tagged full-length human CFTR S13F mutant expressed in human CFBE41o- cells assessed as restoration of plasma membrane density of channel incubated for 24 hrs in presence of VX-445 by ELISA; type: cell membranes
[25] = test system: Cystic fibrosis transmembrane conductance regulator (Homo sapiens), P13569 [F508del]; test: (§4) Corrector activity at 3xHA-tagged full-length human CFTR F508del mutant expressed in human CFBE41o- cells assessed as restoration of plasma membrane density of channel at 10 uM incubated for 24 hrs in presence of VX-809/1-(4-chlorophenyl)-N-(1-(4-methyl-6-oxo-1,6-dihydropyrimidin-2-yl)-3-(thiophen-2-yl)-1H-pyrazol-5-yl)cyclopentane-1-carboxamide by densitometry relative to wild-type CFTR level; type: cell membranes; settings: filed as activator
[26] = test system: Cystic fibrosis transmembrane conductance regulator (Homo sapiens), P13569 [F508del]; test: as §4, with “ELISA” for “densitometry”; type: cell membranes; settings: filed as activator
[27] = test system: Cystic fibrosis transmembrane conductance regulator (Homo sapiens), P13569 [F508del]; test: Corrector activity at 3xHA-tagged full-length human CFTR F508del mutant expressed in human CFBE41o- cells assessed as restoration of channel function in presence of VX-809/1-(4-chlorophenyl)-N-(1-(4-methyl-6-oxo-1,6-dihydropyrimidin-2-yl)-3-(thiophen-2-yl)-1H-pyrazol-5-yl)cyclopentane-1-carboxamide relative to wild-type CFTR activity; type: cell-based; settings: filed as activator
[28] = test system: Cystic fibrosis transmembrane conductance regulator (Homo sapiens), P13569 [F508del]; test: as §4, with “immunoblot analysis” for “densitometry”; type: cell membranes; settings: filed as activator
[29] = test system: Cystic fibrosis transmembrane conductance regulator (Homo sapiens), P13569 [F508del]; test: Corrector activity at 3xHA-tagged full-length human CFTR F508del mutant expressed in human CFBE41o- cells assessed as restoration of plasma membrane density of channel at 10 uM incubated for 24 hrs in presence of VX-661/VX-445 by ELISA; type: cell membranes; settings: filed as activator
[30] = test system: Cystic fibrosis transmembrane conductance regulator (Homo sapiens), P13569 [S492F]; test: as §3, with “S492F” for “F508del”, “rescue of” for “decrease in”, “uM measured after 24 hrs” for “uM”, “method” for “method relative to control”; type: cell-based; settings: filed as activator
[31] = test system: Cystic fibrosis transmembrane conductance regulator (Homo sapiens), P13569 [F508del]; test: Corrector activity at CFTR F508del mutant in patient-derived human HBE cells assessed as forskolin/VX-770-induced transepithelial short-circuit current in presence of VX-809/N-(5-(4-fluorobenzyl)thiazol-2-yl)-2,5-dimethylfuran-3-carboxamide by electrophysiological method (reference value: 16 %); type: cell-based; settings: filed as activator
[32] = test system: Cystic fibrosis transmembrane conductance regulator (Homo sapiens), P13569 [F508del]; test: Inhibition of activity of 3xHA-tagged full-length human CFTR F508del mutant expressed in human CFBE41o- cells in presence of VX-809/N-(5-(4-fluorobenzyl)thiazol-2-yl)-2,5-dimethylfuran-3-carboxamide; type: cell-based
[33] = test system: Cystic fibrosis transmembrane conductance regulator (Homo sapiens), P13569 [S492F]; test: Corrector activity at 3xHA-tagged full-length human CFTR S492F mutant expressed in human CFBE41o- cells assessed as restoration of plasma membrane density of channel at 10 uM incubated for 24 hrs in presence of VX-661/VX-445 by ELISA; type: cell membranes; settings: filed as activator
[34] = test system: Cystic fibrosis transmembrane conductance regulator (Homo sapiens), P13569 [F508del]; test: as §3, with “rescue of” for “decrease in”, “measured after 24 hrs” for “at 10 uM”, “wild-type CFTR activity” for “control”; type: cell-based; settings: filed as activator

Cystic fibrosis transmembrane conductance regulator (Homo sapiens), P13569 [S13F], sequence (P13569 whole entry S13F): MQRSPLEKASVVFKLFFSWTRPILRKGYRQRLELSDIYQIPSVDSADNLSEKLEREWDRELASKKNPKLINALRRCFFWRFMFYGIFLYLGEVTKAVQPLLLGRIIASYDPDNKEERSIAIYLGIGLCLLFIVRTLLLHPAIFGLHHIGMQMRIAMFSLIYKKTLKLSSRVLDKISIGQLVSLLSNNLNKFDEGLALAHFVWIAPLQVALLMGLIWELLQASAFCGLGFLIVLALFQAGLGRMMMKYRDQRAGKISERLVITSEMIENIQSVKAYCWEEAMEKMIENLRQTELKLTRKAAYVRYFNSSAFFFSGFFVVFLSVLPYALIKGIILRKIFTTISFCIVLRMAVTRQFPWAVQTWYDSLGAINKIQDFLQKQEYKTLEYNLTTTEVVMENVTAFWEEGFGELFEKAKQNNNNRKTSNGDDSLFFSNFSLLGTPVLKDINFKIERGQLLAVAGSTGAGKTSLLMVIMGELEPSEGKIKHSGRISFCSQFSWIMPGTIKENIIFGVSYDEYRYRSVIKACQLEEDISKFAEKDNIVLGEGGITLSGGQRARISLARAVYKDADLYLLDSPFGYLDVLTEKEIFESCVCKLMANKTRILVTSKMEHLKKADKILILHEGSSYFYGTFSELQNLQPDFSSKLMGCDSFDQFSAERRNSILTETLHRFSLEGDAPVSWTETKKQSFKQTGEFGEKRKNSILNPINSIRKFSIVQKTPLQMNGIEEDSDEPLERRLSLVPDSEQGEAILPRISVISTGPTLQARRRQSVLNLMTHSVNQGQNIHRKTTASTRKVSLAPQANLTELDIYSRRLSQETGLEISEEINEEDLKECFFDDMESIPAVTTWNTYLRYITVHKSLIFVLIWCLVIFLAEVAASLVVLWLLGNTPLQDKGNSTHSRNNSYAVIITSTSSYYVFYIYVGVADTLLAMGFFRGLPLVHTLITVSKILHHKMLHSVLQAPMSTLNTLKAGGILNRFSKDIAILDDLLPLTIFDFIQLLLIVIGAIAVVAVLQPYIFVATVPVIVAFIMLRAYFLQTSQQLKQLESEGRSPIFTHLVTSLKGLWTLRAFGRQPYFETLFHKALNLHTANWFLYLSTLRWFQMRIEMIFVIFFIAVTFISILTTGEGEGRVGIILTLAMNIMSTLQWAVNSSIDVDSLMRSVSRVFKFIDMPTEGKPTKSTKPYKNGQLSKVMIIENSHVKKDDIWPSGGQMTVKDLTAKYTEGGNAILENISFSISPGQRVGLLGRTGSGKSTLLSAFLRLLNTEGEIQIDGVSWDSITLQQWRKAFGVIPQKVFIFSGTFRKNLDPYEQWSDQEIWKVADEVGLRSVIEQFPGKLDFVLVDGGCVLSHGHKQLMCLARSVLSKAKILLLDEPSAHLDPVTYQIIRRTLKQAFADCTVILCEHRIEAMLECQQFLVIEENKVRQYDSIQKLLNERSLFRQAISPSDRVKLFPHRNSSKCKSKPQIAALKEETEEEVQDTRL
Cystic fibrosis transmembrane conductance regulator (Homo sapiens), P13569 [S492F], sequence (P13569 whole entry S492F): as the sequence (P13569 whole entry S13F) above, with F13S, S492F counted along it
Cystic fibrosis transmembrane conductance regulator (Homo sapiens), P13569 [F508del], sequence (P13569 as listed by the source): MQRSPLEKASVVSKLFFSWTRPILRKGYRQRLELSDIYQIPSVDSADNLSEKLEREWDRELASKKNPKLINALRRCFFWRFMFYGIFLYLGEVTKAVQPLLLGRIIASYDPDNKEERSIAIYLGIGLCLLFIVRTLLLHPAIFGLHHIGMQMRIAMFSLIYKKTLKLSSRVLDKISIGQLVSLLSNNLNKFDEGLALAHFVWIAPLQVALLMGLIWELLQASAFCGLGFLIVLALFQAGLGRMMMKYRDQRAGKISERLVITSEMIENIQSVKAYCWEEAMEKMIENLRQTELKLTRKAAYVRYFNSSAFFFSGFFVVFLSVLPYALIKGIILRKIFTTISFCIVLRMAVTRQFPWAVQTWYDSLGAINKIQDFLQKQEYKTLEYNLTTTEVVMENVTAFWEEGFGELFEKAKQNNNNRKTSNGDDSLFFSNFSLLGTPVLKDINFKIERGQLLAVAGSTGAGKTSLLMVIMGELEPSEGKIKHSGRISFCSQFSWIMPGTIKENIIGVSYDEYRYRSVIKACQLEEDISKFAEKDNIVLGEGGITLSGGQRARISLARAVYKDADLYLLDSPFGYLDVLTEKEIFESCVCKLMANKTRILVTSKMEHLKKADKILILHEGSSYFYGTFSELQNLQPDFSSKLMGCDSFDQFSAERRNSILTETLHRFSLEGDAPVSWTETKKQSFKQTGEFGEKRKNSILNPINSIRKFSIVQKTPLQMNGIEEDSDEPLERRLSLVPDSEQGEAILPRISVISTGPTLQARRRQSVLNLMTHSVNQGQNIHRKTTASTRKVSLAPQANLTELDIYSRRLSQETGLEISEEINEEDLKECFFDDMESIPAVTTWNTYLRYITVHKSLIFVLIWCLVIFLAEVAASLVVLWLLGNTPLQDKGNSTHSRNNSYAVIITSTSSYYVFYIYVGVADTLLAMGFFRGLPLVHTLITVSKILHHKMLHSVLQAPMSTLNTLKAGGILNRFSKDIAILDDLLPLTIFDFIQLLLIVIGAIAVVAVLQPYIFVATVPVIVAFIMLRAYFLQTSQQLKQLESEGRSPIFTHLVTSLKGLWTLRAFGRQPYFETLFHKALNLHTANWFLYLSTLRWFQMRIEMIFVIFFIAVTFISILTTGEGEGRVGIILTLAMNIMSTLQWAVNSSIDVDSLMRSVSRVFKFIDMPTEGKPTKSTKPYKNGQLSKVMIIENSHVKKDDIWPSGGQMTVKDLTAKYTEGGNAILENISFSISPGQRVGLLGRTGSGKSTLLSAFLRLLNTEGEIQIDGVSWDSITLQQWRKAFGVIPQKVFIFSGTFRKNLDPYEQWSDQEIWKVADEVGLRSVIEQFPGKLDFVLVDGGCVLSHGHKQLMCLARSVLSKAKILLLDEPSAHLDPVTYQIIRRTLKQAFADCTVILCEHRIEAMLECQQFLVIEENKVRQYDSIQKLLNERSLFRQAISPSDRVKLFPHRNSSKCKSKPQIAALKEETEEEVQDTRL
Cystic fibrosis transmembrane conductance regulator (Homo sapiens), P13569 [N1303K], sequence (P13569 whole entry N1303K): as the sequence (P13569 whole entry S13F) above, with F13S, N1303K counted along it
Cystic fibrosis transmembrane conductance regulator (Homo sapiens), P13569 [M1101K], sequence (P13569 whole entry M1101K): as the sequence (P13569 whole entry S13F) above, with F13S, M1101K counted along it
Cystic fibrosis transmembrane conductance regulator (Homo sapiens), P13569 [R560T], sequence (P13569 whole entry R560T): as the sequence (P13569 whole entry S13F) above, with F13S, R560T counted along it
Cystic fibrosis transmembrane conductance regulator, sequence (P13569 as listed by the source): as the sequence (P13569 as listed by the source) above

SMILES: Cc1nc(-n2nc(-c3cccs3)cc2NC(=O)C2(c3ccc(Cl)cc3)CCCC2)[nH]c(=O)c1C
- Activity [1]: 15%
- Activity [2]: Active
- Activity [3]: Active
- Activity [4]: 95%
- Activity [5]: 68%
- Activity [6]: Active
- Activity [7]: Active
- Activity [8]: Active
- Activity [9]: 250%
- Activity [10]: Dose-Dependent Effect
- EC50 [11]: 1.79 µM
- Activity [12]: 15%
- Activity [13]: -25%
- Activity [14]: Active
- Activity [15]: Active
- Activity [16]: inactive
- Activity [17]: inactive
- Activity [18]: Active
- Activity [19]: Active
- Activity [20]: Active
- Activity [21]: inactive
- Activity [22]: inactive
- Activity [23]: Active
- Activity [24]: inactive

SMILES: Cc1cc(C(=O)Nc2ncc(Cc3ccc(F)cc3)s2)c(C)o1
- Activity [25]: 100%
- Activity [26]: 100%
- Activity [27]: 50%
- Activity [28]: 100%

SMILES: CC(C)(Oc1ccc(Cl)cc1)C(=O)Nc1cc(-c2cccs2)nn1-c1nc2c(c(=O)[nH]1)CCCC2
- Activity [1]: 15%
- Activity [2]: Active
- Activity [3]: Active
- Activity [6]: Active
- Activity [29]: Active
- Activity [7]: Active
- Activity [8]: Active
- Activity [30]: Active
- Activity [31]: 50%
- Activity [9]: 250%
- Activity [10]: Dose-Dependent Effect
- EC50 [11]: 6.16 µM
- Activity [12]: 15%
- inhibition [32]: inactive
- Activity [14]: Active
- Activity [33]: Active
- Activity [15]: Active
- Activity [34]: 80%
- Activity [16]: inactive
- Activity [17]: inactive
- Activity [18]: Active
- Activity [19]: Active
- Activity [20]: Active
- Activity [21]: inactive
- Activity [22]: inactive
- Activity [23]: Active
- Activity [24]: inactive
